From PubChem BioAssay (NCI) come the findings set out here.

Assay in all cases: NCI-60 cell line screen, 48 h
Assay [1] concerns UO-31 renal.
The subject of assay [2] is SNB-78 CNS.
In assay [3] the test system is MALME-3M melanoma.
For assay [4], the system named is RPMI-8226 leukemia.
Assay [5] has as its system MOLT-4 leukemia.
Assay [6] concerns NCI-H522 lung.
Assay [7] concerns DLD-1 colon.
Assay [8] relates to HOP-92 NSCLC.
Assay [9] has as its system BT-549 breast.
The test system of assay [10] is MCF7 breast.

The structures appear in SMILES notation. Where “and” joins values, the source holds several entries; their conditions need not be identical. Equal values may be shown once.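 Test compounds were applied to cells in 96-well plates for 48 hours at 5 doses. GI50 marks 50% less growth. At the TGI there is no net growth.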

`CC(=O)c1ccc(NC(=O)/C(CC(=O)c2sc(-c3cccnc3)nc2C)=N/NC(N)=O)cc1`: the TGI in assay [1] was over 100 µM; in assay [2], over 100 µM; in assay [3], over 100 µM; in assay [4], 54.4 µM; in [5], 46 µM; in assay [6] it was over 100 µM.

In the case of `COc1ccc([C@@]2(O)c3c(ccc(O)c3OC)[C@H]2OC)c(OC)c1`, the TGI in [7], in [1], in assay [3], in assay [4], in assay [8] and in assay [5] was over 100 µM throughout. This compound also had a TGI in assay [6] of 85.4 µM.

For `COc1cc(NS(=O)(=O)c2ccc(C)cc2)c2nccnc2c1`, the TGI in assay [7] was over 100 µM; in assay [1], over 100 µM; in assay [3], over 100 µM; in assay [4], over 100 µM; in assay [8], over 100 µM; in assay [5], 52.3 µM. In assay [6], this compound yielded a TGI of 70.2 µM.

On to `NCCCNCCS`, for which the TGI in assay [9], in assay [10], in assay [1], in assay [2], in [3] and in assay [4] was over 100 µM in each case. Further, the TGI in assay [8], in [5] and in [6] was over 100 µM throughout. For the same compound, the GI50 in assay [4] is > 100000 nM and 20600 nM.

Regarding `CC(=O)C1C(c2ccccc2)C2(C)OC(=O)C(C#N)C12C` (stereo not drawn), the TGI in assay [7], in [1], in assay [2], in [3], in assay [4] and in [5] was over 100 µM each time.

Regarding `COC(=O)c1ccc2[nH]c(O)c(C(=Nc3ccc(N(C)C(=O)CN4CCN(C)CC4)cc3)c3ccc4c(c3)OCO4)c2c1`, the GI50 in [9] was 1060 nM; in [10], 327 nM; in [1], 1300 nM; in assay [3], 895 nM; in [4], 655 nM; in assay [8], 2090 nM. For the same compound, the GI50 in assay [5] was 323 nM; in assay [6], 859 nM. Moreover, the TGI in assay [9] was 2.47 µM; in assay [10], 1.8 µM; in assay [1], 3.71 µM; in assay [3], 2.29 µM; in [4], 2.83 µM; in [8], 7.75 µM. In addition, the TGI came out at 2.4 µM in assay [5] and 3.66 µM in assay [6].

In the case of `C=C1c2c(C)nn(-c3ccc(C#CCOC4OC(CO)C(O)C(O)C4O)cc3)c2N(C)C23C[C@H]1C1(C)c4c(C)nn(-c5ccc(C#CCOC6OC(CO)C(O)C(O)C6O)cc5)c4N(C)C(C)(C[C@H]12)C3` (stereo partly drawn), the GI50 in assay [9] is 1300 nM; in assay [10] it was 1380 nM; in assay [1], 2830 nM; in assay [3], 1870 nM; in assay [4], 290 nM; in [8] it was 437 nM. Further, the results for the GI50 in assay [5] and in [6] were 1280 nM and 1670 nM, respectively. The TGI in assay [9] worked out at 2.97 µM; in [10], 3.2 µM; in assay [1], 10.1 µM; in assay [3] it was 3.66 µM; in [4] it was 1.72 µM; in assay [8], 2.52 µM. Also, the TGI in assay [5] turned out to be 3.88 µM; in [6] it was 3.26 µM.

Regarding `CCCCCCCCn1ccc2cc(NC(=O)Cn3cc(CN4CCCCCC4)nn3)ccc21`, the GI50 in [9] is 1720 nM; in assay [10] it was 1830 nM; in assay [1] it was 1480 nM; in assay [3], 1670 nM; in assay [4], 1940 nM; in assay [8], 1260 nM. Besides, the figures for the GI50 in [5] and in assay [6] were 2050 nM and 1850 nM, respectively. In addition, the TGI in assay [9] worked out at 3.32 µM; in assay [10], 3.63 µM; in assay [1], 2.81 µM; in assay [3], 3.2 µM; in assay [4], 4.31 µM; in [8] it was 2.61 µM. For the same compound, the results for the TGI in assay [5] and in [6] were 5.08 µM and 3.59 µM, respectively.

For `C[C@]12CCc3sc(Nc4ccc(OC(F)(F)F)cc4)nc3C1=CC[C@@H]1[C@@H]2CC[C@]2(C)C(=O)CC[C@@H]12`, the GI50 in [9] is 1780 nM; in assay [10], 1820 nM; in assay [1] it was 2060 nM; in assay [3], 3450 nM; in assay [4], 1020 nM; in assay [8] it was 1430 nM. For the same compound, the GI50 is 1530 nM in assay [5] and 2140 nM in assay [6]. Also, the TGI in assay [9] worked out at 7.42 µM; in assay [10] it was 4.14 µM; in assay [1] it was 4.73 µM; in assay [3], 16.8 µM; in assay [4] it was 3.77 µM; in assay [8], 3.44 µM. Moreover, the TGI in assay [5] is 11.9 µM; in assay [6] it was 4.56 µM.

For `O=C(O)CCCc1ccc2ccc3ccccc3c2c1`, the TGI in [9], in assay [10], in [1], in assay [3], in [4] and in [8] was over 100 µM in each case. The TGI in [5] and in [6] was over 100 µM each time.

For the compound `CN(c1ccc(NC(=O)Nc2c(Cl)cccc2Cl)cc1)c1ccnc(Nc2cccc(CS(C)(=O)=O)c2)n1`, the GI50 in [9] is 3300 nM; in assay [10], 2820 nM; in assay [1] it was 4280 nM; in assay [3], 1530 nM; in assay [4], 3680 nM; in assay [8], 2880 nM. The GI50 is over 25000 nM in [5] and 3100 nM in assay [6]. The TGI was 8.15 µM in assay [9]; over 14.3 µM in assay [10]; 13.3 µM in [1]; over 14.4 µM in assay [3]; over 22.7 µM in assay [4]; 12 µM in assay [8]. The TGI in assay [5] is over 25 µM; in [6], 9.23 µM.

`C#CC1(O)C(COP(=O)(O)OCC(COP(=O)(O)OCC2OC(n3cc(F)c(=O)[nH]c3=O)CC2O)OCCCCCCCCCCCCCCCCCC)OC(n2ccc(N)nc2=O)C1O` (stereo not drawn): the GI50 is 155 nM in [9]; under 10 nM in assay [10]; 461 nM in [1]; 102 nM in [3]; 111 nM in [4]; 764 nM in assay [8]. Further, the results for the GI50 in assay [5] and in assay [6] were 348 nM and 712 nM, respectively. Further, the TGI in assay [9] was 5.41 µM; in [10] it was over 32 µM; in assay [3], 5.36 µM; in assay [4], over 100 µM; in assay [5], over 100 µM; in [6], over 34.8 µM.

For the compound `CC1(C)N=C(N)N=C(N)N1c1ccc(CCC(=O)Nc2ccc(S(=O)(=O)F)cc2)c(Cl)c1`, the GI50 was 995 nM in [9]; 515 nM in assay [10]; 63600 nM in [1]; 19900 nM in [3]; 515 nM in assay [4]; 6540 nM in [8]. Also, the GI50 was 1200 nM in [5] and 642 nM in [6]. For the same compound, the TGI in assay [9], in [10], in assay [1], in assay [3], in [4] and in assay [8] was over 100 µM throughout. The TGI in assay [5] and in [6] was over 100 µM each time.

As for `CC(C)C(O)(C(C)C)C(C)C`, the TGI in [9], in assay [10], in assay [1], in [3], in assay [4] and in assay [8] was over 100 µM each time. Also, the TGI in assay [5] and in [6] was over 100 µM in each case.

Consider `O=C(/C=C/c1ccccc1)Nc1ncc(Cc2ccccc2Cl)s1`, for which the GI50 in [9] is 945 nM; in assay [10], 311 nM; in assay [1] it was 614 nM; in [3], 365 nM; in assay [4], 335 nM; in [8], 1260 nM. For the same compound, the GI50 in assay [5] is 459 nM; in assay [6], 474 nM. Moreover, the TGI in [9], in [10], in [1], in [3], in [8] and in assay [5] was over 100 µM in each case. The same compound had a TGI in assay [6] of over 100 µM.

As to `CC/C=C\C[C@H]1CC=C2C(=O)C=C[C@@H]2CC=CCCCC(=O)O[C@@H](CCCCC)CC=C2C(=O)C=C[C@@H]2CC=CCCCC(=O)O[C@@H](CCCCC)CC=C2C(=O)C=C[C@@H]2CC=CCCCC(=O)O[C@@H](CCCCC)CC=C2C(=O)C=C[C@@H]2CC=CCCCC(=O)O1`, the GI50 in assay [9] was 1780 nM; in assay [10], 1460 nM; in [1], 1410 nM; in assay [3], 2770 nM; in [4], 1830 nM; in assay [8] it was 1530 nM. Also, the figures for the GI50 in assay [5] and in assay [6] were 2390 nM and 1760 nM, respectively. Moreover, the TGI in assay [9] was 5.21 µM; in assay [10], over 7.9 µM; in assay [1] it was 2.84 µM; in assay [3], over 7.9 µM; in assay [4], 5.83 µM; in assay [8], 4.32 µM. In addition, the TGI is over 7.9 µM in assay [5] and 4.48 µM in assay [6].
